Source: US8034937B2, “Azaspiro derivatives” (Hoffmann-La Roche Inc., priority 2006, dated 2011)
Counter-ions that a name gives are not always drawn.

Molecular target: T1, human V1a receptor (Homo sapiens, UniProt P37288)
T1 construct: expressed in transfected cells; host or cells: HEK293 cells, transiently transfected; membranes prepared
Assay: human V1a receptor binding (3H-Vasopressin SPA, HEK293 membranes)
Conditions: 3H-Vasopressin displacement, membranes of HEK293 cells transiently transfected with human V1a; Ki by Cheng-Prussoff; read-out: pKi (hV1a) (converted)
Method: The human V1a receptor was cloned by RT-PCR from total human liver RNA. The coding sequence was subcloned in an expression vector after sequencing to confirm the identity of the amplified sequence. […] Cell membranes were prepared from HEK293 cells transiently transfected with the expression vector and grown in 20 liter fermenters with the following protocol.
50 g of cells were resuspended in 30 ml freshly prepared ice cold Lysis buffer (50 mM HEPES, 1 mM EDTA, 10 mM MgCl2 adjusted to pH=7.4+complete cocktail of protease inhibitor (Roche Diagnostics)); homogenized with Polytron for 1 min, and sonicated on ice for 2×2 minutes at 80% intensity (Vibracell sonicator). The preparation was centrifuged 20 min at 500 g at 4° C., the pellet was discarded and the supernatant centrifuged 1 hour at 43,000 g at 4° C. (19,000 rpm). The pellet was resuspended in 12.5 ml Lysis buffer+12.5 ml Sucrose 20% and homogenized using a Polytron for 1-2 min. The protein concentration was determined by the Bradford method and aliquots were stored at −80° C. until use. For binding studies 60 mg Yttrium silicate SPA beads (Amersham) were mixed with an aliquot of membrane in binding buffer (50 mM Tris, 120 mM NaCl, 5 mM KCl, 2 mM CaCl2, 10 mM MgCl2) for 15 minutes with mixing. 50 ul of bead/membrane mixture was then added to each well of a 96 well plate, followed by 50 ul of 4 nM 3H-Vasopressin (American Radiolabeled Chemicals). For total binding measurement 100 ul of binding buffer were added to the respective wells, for non-specific binding 100 ul of 8.4 mM cold vasopressin and for compound testing 100 ul of a serial dilution of each compound in 2% DMSO. The plate was incubated 1 h at room temperature, centrifuged 1 min at 1000 g and counted on a Packard Top-Count. Non-specific binding counts wee subtracted from each well and data was normalized to the maximum specific binding set at 100%. To calculate an IC 50 the curve was fitted using a non-linear regression model (XLfit), and the Ki was calculated using the Cheng-Prussoff equation.

T1 sequence (P37288 whole entry): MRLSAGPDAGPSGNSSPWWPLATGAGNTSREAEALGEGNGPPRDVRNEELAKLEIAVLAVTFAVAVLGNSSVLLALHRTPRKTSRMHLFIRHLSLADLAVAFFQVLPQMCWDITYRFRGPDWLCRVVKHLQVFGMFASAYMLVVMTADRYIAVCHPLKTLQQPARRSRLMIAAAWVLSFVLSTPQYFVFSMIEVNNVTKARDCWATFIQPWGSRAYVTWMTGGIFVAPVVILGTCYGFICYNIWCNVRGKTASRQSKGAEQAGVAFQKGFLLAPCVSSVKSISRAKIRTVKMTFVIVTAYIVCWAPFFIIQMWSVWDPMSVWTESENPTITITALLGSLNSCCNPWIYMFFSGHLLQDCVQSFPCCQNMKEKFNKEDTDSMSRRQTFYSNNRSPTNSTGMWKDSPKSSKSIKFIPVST

Row | SMILES | Ki
1 | O=C(c1cn(C[C@@H]2CCCN2)c2cc(Cl)ccc12)N1CCC2(CC1)OCc1ncccc12 [Compound 3, 1′-({6-Chloro-1-[(2S)-pyrrolidin-2-ylmethyl]-1H-indol-3-yl}carbonyl)-7H-spiro[furo[3,4-b]pyridine-5,4′-piperidine]dihydrochloride] | 25.1 nM
2 | CN1CCC[C@H]1Cn1cc(C(=O)N2CCC3(CC2)OCc2ncccc23)c2ccc(Cl)cc21 [Compound 4, 1′-[(6-Chloro-1-{[(2S)-1-methylpyrrolidin-2-yl]methyl}-1H-indol-3-yl)carbonyl]-7H-spiro[furo[3,4-b]pyridine-5,4′-piperidine]] | 1.55 nM
3 | O=C(c1cn(Cc2cc(F)cc(F)c2)c2cc(Cl)ccc12)N1CCC2(CC1)OCc1ncccc12 [Compound 5, 1′-{[6-Chloro-1-(3,5-difluorobenzyl)-1H-indol-3-yl]carbonyl}-7H-spiro[furo[3,4-b]pyridine-5,4′-piperidine]] | 4.37 nM
4 | O=C(c1c[nH]c2cc(Cl)ccc12)N1CCC2(CC1)OCc1cccnc12 [Compound 6, 1′-[(6-Chloro-1H-indol-3-yl)carbonyl]-5H-spiro[furo[3,4-b]pyridine-7,4′-piperidine]] | 5.25 nM
5 | CC(C)(C)OC(=O)N1CCC[C@H]1Cn1cc(C(=O)N2CCC3(CC2)OCc2cccnc23)c2ccc(Cl)cc21 [Compound 7, tert-Butyl (2S)-2-{[6-chloro-3-(1′H,5H-spiro[furo[3,4-b]pyridine-7,4′-piperidin]-1′-ylcarbonyl)-1H-indol-1-yl]methyl}pyrrolidine-1-carboxylate] | 22.9 nM
6 | O=C(c1cn(C[C@@H]2CCCN2)c2cc(Cl)ccc12)N1CCC2(CC1)OCc1cccnc12 [Compound 8, 1′-({6-Chloro-1-[(2S)-pyrrolidin-2-ylmethyl]-1H-indol-3-yl}carbonyl)-5H-spiro[furo[3,4-b]pyridine-7,4′-piperidine]dihydrochloride] | 3.31 nM
7 | CN1CCC[C@H]1Cn1cc(C(=O)N2CCC3(CC2)OCc2cccnc23)c2ccc(Cl)cc21 [Compound 9, 1′-[(6-Chloro-1-1{[(2S)-1-methylpyrrolidin-2-yl]methyl}-1H-indol-3-yl)carbonyl]-5H-spiro[furo[3,4-b]pyridine-7,4′-piperidine]] | 1 nM
8 | O=C(c1c[nH]c2cc(Cl)ccc12)N1CCC2(CC1)OCc1ccncc12 [Compound 10, 1′-[(6-Chloro-1H-indol-3-yl)carbonyl]-1H-spiro[furo[3,4-c]pyridine-3,4′-piperidine]] | 8.71 nM
9 | CC(C)(C)OC(=O)N1CCC[C@H]1Cn1cc(C(=O)N2CCC3(CC2)OCc2ccncc23)c2ccc(Cl)cc21 [Compound 11, tert-Butyl (2S)-2-{[6-chloro-3-(1H, 1′H-spiro[furo[3,4-c]pyridine-3,4′-piperidin]-1′-ylcarbonyl)-1H-indol-1-yl]methyl}pyrrolidine-1-carboxylate] | 23.4 nM
10 | O=C(c1cn(C[C@@H]2CCCN2)c2cc(Cl)ccc12)N1CCC2(CC1)OCc1ccncc12 [Compound 12, 1′-({6-Chloro-1-[(2S)-pyrrolidin-2-ylmethyl]-1H-indol-3-yl}carbonyl)-1H-spiro[furo[3,4-c]pyridine-3,4′-piperidine]dihydrochloride] | 4.57 nM
11 | CN1CCC[C@H]1Cn1cc(C(=O)N2CCC3(CC2)OCc2ccncc23)c2ccc(Cl)cc21 [Compound 13, 1′-[(6-Chloro-1-{[(2S)-1-methylpyrrolidin-2-yl]methyl}-1H-indol-3-yl)carbonyl]-1H-spiro[furo[3,4-c]pyridine-3,4′-piperidine]] | 1.1 nM
12 | O=C(c1cn(Cc2cc(F)cc(F)c2)c2cc(Cl)ccc12)N1CCC2(CC1)OCc1cccnc12 [Compound 14, 1′-{[6-Chloro-1-(3,5-difluorobenzyl)-1H-indol-3-yl]carbonyl}-5H-spiro[furo[3,4-b]pyridine-7,4′-piperidine]] | 4.27 nM
